Test results published in patent US11292760B2, “Therapeutic acrylates as enhanced medical adhesives” (Carnegie Mellon University, priority 2016, dated 2022).

Experiments:
[1] = Time-lapse 1H NMR of hydrolysis after exposure to D2O; format: physicochemical; conditions: monomer dissolved in CDCl3, 1H NMR
Procedure: […] One drop of deuterium oxide (D2O, EMD Millipore) was then added and the sample inverted gently once to mix. Spectra were recorded immediately, then periodically for the next two hours.

[2] = Solubility of TMA monomer in adhesive monomers; format: physicochemical

time course of anhydride bond hydrolysis after exposure to D2O [1] [min] | solubility in methyl methacrylate monomer ([2]; commercial formulation) | solubility in n-butyl cyanoacrylate ([2]; commercial formulation) | solubility in BCA monomer ([2]; 25% TMA by weight in the adhesive, preliminary formulation tests) | Structure (SMILES)
90 | soluble | soluble | – | C=C(C)C(=O)OC(=O)C(C)c1ccc(CC(C)C)cc1 (stereo not shown) [IbuMA, Ibuprofen Methacrylic Anhydride]
– | – | – | excellent solubility | C=C(C)C(=O)Nc1ccc(C(=O)OCC)cc1 [BenzMA, Benzocaine Methacrylamide]
